From patent publication US20260207765A1, “COVALENTLY-MODIFIED STEROID ACID-PEPTIDES HAVING ENHANCED STABILITY AND/OR BIOLOGICAL ACTIVITY” (priority 2022, published 2026)
Positions of bridges follow the written chain, without caps; N, C: chain ends. Residues, ends and D or L forms follow the SMILES beside them. Chains are numbered I, II in the order given. *: point of attachment. Chenodeoxycholyl = C[C@H](CCC(=O)*)[C@H]1CC[C@H]2[C@@H]3[C@H](O)C[C@@H]4C[C@H](O)CC[C@]4(C)[C@H]3CC[C@]12C

Experiments:
EL4 lymphoma cells = assay: Apoptosis analysis / kill curve by flow cytometry (Annexin-V, PI); format: cell-based, mouse
Protocol: (§1) Apoptosis analysis was conducted by flow-cytometry. Briefly, target cells were first treated then washed. Treated cells were then re-suspended in Annexin-V staining buffer prior to staining with Annexin-V and propidium iodine (PI). Fifteen minutes later, cells were washed prior to analysis using BD FACS™ Diva on CANTOII™.

[1] = Stability testing (impurities by HPLC); format: physicochemical
Description: GMP synthesis of the CDCA-C-SV40 monomer yielded a white powder and the results of initial stability testing is summarized below:
As shown above, two main impurities were detected by HPLC relating to the reactivity of the free thiol group of the CDCA-C-SV40 monomer, namely impurities resulting from oxidation of the thiol group (Impurity A) and the formation an intermolecular disulfide bond via the thiol groups of two CDCA-C-SV40 monomers, producing a (CDCA-C-SV40)2 dimer (Impurity B).
To attempt to improve stability, the synthesis protocol of CDCA-C-SV40 was modified to produce the conjugate directly in its dimerized form (Impurity B). […] At 25° C., total impurities rose only slightly from 1.6% at Day 0 to 2.1% after 3 months. At 40° C., total impurities rose from 1.6% at Day 0 to 1.7% after 5 days, 2.4% after 10 days, and to 3.7% after 30 days.

[2] = tested on: JIMT-1 breast cancer cells; assay: Cytotoxicity of steroid acid-peptide conjugates in JIMT-1 cells; format: cell-based; details: 6.4 μM
Protocol: as §1
50 mg of CDCA-C-SV40 monomers (or other steroid acid-peptide monomers) were resuspended in 200-500 μL of DMSO. 10 eq of N,N-Diisopropylethylamine (DIPEA) was added to the mixture and incubated in a thermomixer at 37° C. with agitation (1000 rpm) overnight, enabling dimerization of the monomers via their N-terminal cysteine thiol groups to produce (CDCA-C-SV40)2 or other dimers. The samples were then analyzed by UPLC-MS to evaluate dimer formation efficiency. Cell toxicity was evaluated via a Cell Toxicity assay (PrestoBlue™).

[3] = tested on: E0771 breast cancer cells; assay: Apoptosis analysis by flow cytometry; format: cell-based; details: 95 and 190 μM
Protocol: as §1

[4] = tested on: CT-26 colon carcinoma cells; assay: Apoptosis analysis by flow cytometry; format: cell-based; details: 95 and 190 μM
Protocol: as §1

B16 melanoma cells = assay: Apoptosis analysis by flow cytometry; format: cell-based; details: 95 and 190 μM
Protocol: as §1

4T1 breast cancer cells = assay: Apoptosis analysis by flow cytometry; format: cell-based; details: 95 and 190 μM
Protocol: as §1

[5] = tested on: wild-type MSC and B3Z reporter system; assay: Antigen cross-presentation, wild-type MSC and B3Z reporter system; details: 100 μM
murine MSCs = assay: Maximum tolerated dose on murine MSCs over 24 h; format: cell-based; details: 50 μM

SMILES: CC(C)[C@H](NC(=O)[C@H](CCCCN)NC(=O)[C@H](CCCNC(=N)N)NC(=O)[C@H](CCCCN)NC(=O)[C@H](CCCCN)NC(=O)[C@H](CCCCN)NC(=O)[C@@H]1CCCN1C(=O)CNC(=O)[C@H](Cc1ccc(O)cc1)NC(=O)CNC(=O)[C@H](CSSC[C@H](NC(=O)CC[C@@H](C)[C@H]1CC[C@H]2[C@@H]3[C@H](O)C[C@@H]4C[C@H](O)CC[C@]4(C)[C@H]3CC[C@]12C)C(=O)NCC(=O)N[C@@H](Cc1ccc(O)cc1)C(=O)NCC(=O)N1CCC[C@H]1C(=O)N[C@@H](CCCCN)C(=O)N[C@@H](CCCCN)C(=O)N[C@@H](CCCCN)C(=O)N[C@@H](CCCNC(=N)N)C(=O)N[C@@H](CCCCN)C(=O)N[C@H](C(=O)NCC(=O)NCC(=O)O)C(C)C)NC(=O)CC[C@@H](C)[C@H]1CC[C@H]2[C@@H]3[C@H](O)C[C@@H]4C[C@H](O)CC[C@]4(C)[C@H]3CC[C@]12C)C(=O)NCC(=O)NCC(=O)O [(CDCA-C-SV40)2] (I: Chenodeoxycholyl-CGYGPKKKRKVGG-OH / II: Chenodeoxycholyl-CGYGPKKKRKVGG-OH; disulfide I:1-II:1)
- cytotoxicity (EL4 lymphoma cells; 95 and 190 μM): potent cytotoxicity
- EC50 (EL4 lymphoma cells; EL4 lymphoma cells, flow cytometry, read-out: EC50 (cell death / kill curve)): 3.2 µM
- stability of dimer compared with corresponding monomer [1]: markedly higher stability
- cytotoxicity [2]: potent cytotoxicity
- cytotoxicity [3]: potent cytotoxicity
- cytotoxicity [4]: potent cytotoxicity
- cytotoxicity (B16 melanoma cells): potent cytotoxicity
- cytotoxicity (4T1 breast cancer cells): potent cytotoxicity
- cell death of MSCs [5]: significant cell death
- MSCs growth (murine MSCs): diminished but was still present
